Test results taken from article PMC9232612, “A phase 1b randomised controlled trial of a glucagon-like peptide-1 and glucagon receptor dual agonist IBI362 (LY3305677) in Chinese patients with type 2 diabetes” (Nature Communications, 2022).
Several values for one entry are separate records, joined by “and”; a condition that tells them apart may be missing. Identical values can stand only once.

Tests used:
Type in all cases: in vivo, human
[1] = system: Chinese patients with T2D; experiment: Mixed-meal tolerance test (MTT): C peptide
Method: (§1) HbA1c (2200101, Bio-Rad, USA), blood glucose (05168791190, Roche Diagnostics, Germany), insulin (12017547122, Roche Diagnostics, Germany), C peptide (03184897190, Roche Diagnostics, Germany), total GLP-1 (GLP-1 [7–36] amide and its metabolite, GLP-1 [9–36] amide, 10-1278-01, Mercodia AB, Sweden) and OXM (AL-139, AnshLabs, USA) tests were performed according to the manufactures’ instruction manuals in a central laboratory (KingMed Diagnostics, Guangzhou, China). HbA1c was measured using a Bio-rad D-100 Haemoglobin Testing System (Bio-rad). Blood glucose was measured using a Roche Cobas c702 analyser (Roche Diagnostics). Insulin and C peptide were measured using a Roche […] analyser (Roche Diagnostics). GLP-1 and OXM were measured using a Tecan Infinite M Plex microplate reader (TECAN).
(§2) Standard non-compartmental pharmacokinetics methods were used to analyze IBI362 plasma concentration data using Pkanalix 2020R1 (Lixoft, Antony, France). Secondary efficacy outcomes included change from baseline to week 12 in HbA1c, fasting plasma glucose (FPG), fasting insulin levels, change from baseline to week 12 in post-mixed-meal tolerance test (post-MTT) glucose, insulin, C peptide, GLP-1 and OXM levels, as well as seven-point self-measured blood glucose (SMBG) profile.
IBI362 Innovent Biologics (Suzhou) Co., Ltd. CIBI362A101
(§3) 3. Standard meal test (MTT) collection measures included: insulin, C-peptide, plasma glucose, glucagon, endogenous OXM, and endogenous GLP-1. The sampling points include: fasting, 30 min, 1h, 2h, 3h and 4h.
(§4) A total of 9 mL blood will be collected from each blood collection point. See the manual of the central laboratory for the detailed operation process. Fasting state refers to fasting for 10 hours. [ The standard meal is
(§5) instant noodles. The master Kang roast beef noodles (bucket noodles) purchased by the sponsor in a unified manner are removed from the oil bag. The noodles are soaked in boiled water and then removed. The seasoning
(§6) bag is added and mixed well. The time is counted from the first bite of eating. The noodles are eaten within 10 minutes, and 200 mL of water is drunk; or the instant noodles are directly opened with 200 mL of boiled
water to ensure that the noodles are eaten and the water or soup is drunk]. Visit days when MTT test is performed: 1 day prior to Cycle 1 administration, Day 80 (D80).
4. If the patient experiences drug-related adverse events during dose escalation and meets the protocol-specified tolerance criteria, dose adjustment is required at the investigator's discretion, and a standard meal test
should be performed 48 hours after the first dose after dose adjustment.
(§7) ● Test by central laboratory

[2] = system: Chinese patients with T2D; experiment: Homeostatic model assessment of insulin resistance (HOMA-IR); settings: for Change from baseline to week 12 in HOMA-IR, individual: single patients
Excerpt: Exploratory outcomes included change from baseline in body weight, waist circumference, body-mass index (BMI) and change in homeostatic model assessment of β-cell function (HOMA-β) and insulin resistance (HOMA-IR).

[3] = system: Chinese patients with T2D; experiment: Blood pressure (systolic, diastolic); settings: mean
Excerpt: Primary outcomes of the study were the safety and tolerability of IBI362. Safety assessment included adverse events, physical examinations, laboratory tests (including lipase, amylase and calcitonin level measures), vital signs and 12-lead electrocardiogram. Adverse events were categorized according to the Medical Dictionary for Regulatory Activities system organ classes (SOCs) and preferred terms. Treatment-emergent adverse events (TEAEs) were monitored from the time of informed consent to the safety follow-up period. The severity of TEAEs (mild, moderate or severe) and the association between an event and the study drug were assessed by investigators based on pre-specified criteria.
Fig. S7: Change from baseline in waist circumference, BMI and blood pressure at week 12. a. CFB in waist circumference at week 12. b. CFB in BMI at week 12. c. CFB in blood pressure at week 12. Data are plotted as means +/- SD. a. IBI362 3.0 mg n = 7; IBI362 4.5 mg n = 5; IBI362 6.0 mg n = 8; Pooled placebo n = 11; Dulaglutide n = 6. b. IBI362 3.0 mg n = 7; IBI362 4.5 mg n = 5; […]
mg n = 6; IBI362 6.0 mg n = 8; Pooled placebo n = 11; Dulaglutide n = 6. BMI = body-mass index; CFB = change from baseline; DBP = diastolic blood pressure; SBP = systolic blood pressure; SD = standard deviation. Source data are provided as a Source Data file.
CFB in BMI at week 12 (kg/m2), […]
at week 12 (mm Hg), mean (SD)
CFB in waist circumference at week 12 (cm), mean (SD) […]

[4] = system: Chinese patients with T2D; experiment: Mixed-meal tolerance test (MTT): plasma glucose and glucose AUC0-4 h; settings: for Percent change from baseline to week 12 in post-MTT glucose AUC0-4 h, LS mean: MMRM
Method: as §1, §2
The analyses for change from baseline in HbA1c, FPG, post-MTT glucose AUC0–4 h and body weight were performed using the mixed-effect model for repeated measures (MMRM) with least-squares means and standard error provided. The MMRM included the corresponding baseline value, treatment, visit and treatment-by-visit as fixed effects and patient as a random effect. Mean change or mean percent change from baseline were analysed using a restricted maximum likelihood (REML)‐based repeated measures approach in combination with the Newton Raphson Algorithm. The fix effect of visit was fitted as a repeated effect and an unstructured covariance matrix was used. In case of non-converge, matrix like Variance Components and Compound Symmetry will be tested in a subsequent order until model‐convergence is achieved. The Kenward-Roger degree of freedom was used in estimating fixed effects. No missing data imputation was conducted. For HbA1c, FPG and body weight, point estimate of treatment difference versus placebo and 90% CI were provided for each IBI362 dose group and the dulaglutide group, with nominal p values. […]
as §3, §4, §5, §6
water to ensure that the noodles are eaten and the water or soup is drunk]. Visit days when MTT test is performed: 1 day prior to Cycle 1 administration, Day 80 (D80). […]
as §7

[5] = week 12, 0 min, 3.0 mg cohort, n=7
[6] = week 12, 0 min, 4.5 mg cohort, n=5
[7] = week 12, 0 min, 6.0 mg cohort, n=8
[8] = week 12, 30 min, 3.0 mg cohort, n=7
[9] = week 12, 30 min, 4.5 mg cohort, n=5
[10] = week 12, 30 min, 6.0 mg cohort, n=8
[11] = week 12, 60 min, 3.0 mg cohort, n=7
[12] = week 12, 60 min, 4.5 mg cohort, n=5
[13] = week 12, 60 min, 6.0 mg cohort, n=8
[14] = week 12, 120 min, 3.0 mg cohort, n=7
[15] = week 12, 120 min, 4.5 mg cohort, n=5
[16] = week 12, 120 min, 6.0 mg cohort, n=8
[17] = week 12, 180 min, 3.0 mg cohort, n=7
[18] = week 12, 180 min, 4.5 mg cohort, n=5
[19] = week 12, 180 min, 6.0 mg cohort, n=8
[20] = week 12, 240 min, 3.0 mg cohort, n=7
[21] = week 12, 240 min, 4.5 mg cohort, n=5
[22] = week 12, 240 min, 6.0 mg cohort, n=8
[23] = week 12, 0 min, 1.5 mg once weekly, n=6
[24] = week 12, 30 min, 1.5 mg once weekly, n=6
[25] = week 12, 60 min, 1.5 mg once weekly, n=6
[26] = week 12, 120 min, 1.5 mg once weekly, n=6
[27] = week 12, 180 min, 1.5 mg once weekly, n=6
[28] = week 12, 240 min, 1.5 mg once weekly, n=6

**Q.** Which results are given for CC(C)C[C@H](NC(=O)[C@H](CC(C)C)NC(=O)[C@H](Cc1c[nH]c2ccccc12)NC(=O)[C@H](CCC(=O)O)NC(=O)[C@@H](NC(=O)[C@H](Cc1ccccc1)NC(=O)[C@H](CCC(=O)O)NC(=O)[C@H](CCCCNC(=O)COCCOCCNC(=O)COCCOCCNC(=O)CC[C@H](NC(=O)CCCCCCCCCCCCCCCCCCC(=O)O)C(=O)O)NC(=O)[C@H](C)NC(=O)[C@H](CCCCN)NC(=O)[C@H](CCCCN)NC(=O)[C@H](CCC(=O)O)NC(=O)[C@H](CC(=O)O)NC(=O)[C@H](CC(C)C)NC(=O)[C@H](Cc1ccc(O)cc1)NC(=O)[C@H](CCCCN)NC(=O)[C@H](CO)NC(=O)[C@H](Cc1ccc(O)cc1)NC(=O)[C@H](CC(=O)O)NC(=O)[C@H](CO)NC(=O)[C@@H](NC(=O)[C@H](Cc1ccccc1)NC(=O)[C@@H](NC(=O)CNC(=O)[C@H](CCC(N)=O)NC(=O)C(C)(C)NC(=O)[C@@H](N)Cc1c[nH]cn1)[C@@H](C)O)[C@@H](C)O)C(C)C)C(=O)N[C@@H](CCC(=O)O)C(=O)NCC(=O)NCC(=O)N1CCC[C@H]1C(=O)N[C@@H](CO)C(=O)N[C@@H](CO)C(=O)NCC(N)=O [IBI362]?
**A.** C peptide during MTT, mean [1, 5]: 2.67 ng/mL; C peptide during MTT, mean [1, 6]: 2.81 ng/mL; C peptide during MTT, mean [1, 7]: 2.79 ng/mL; C peptide during MTT, mean [1, 8]: 3.41 ng/mL; C peptide during MTT, mean [1, 9]: 3.46 ng/mL; C peptide during MTT, mean [1, 10]: 3.54 ng/mL; C peptide during MTT, mean [1, 11]: 5.15 ng/mL; C peptide during MTT, mean [1, 12]: 4.85 ng/mL; C peptide during MTT, mean [1, 13]: 5.24 ng/mL; C peptide during MTT, mean [1, 14]: 8.22 ng/mL; C peptide during MTT, mean [1, 15]: 6.34 ng/mL; C peptide during MTT, mean [1, 16]: 8.25 ng/mL; C peptide during MTT, mean [1, 17]: 7.74 ng/mL; C peptide during MTT, mean [1, 18]: 7.22 ng/mL; C peptide during MTT, mean [1, 19]: 7.50 ng/mL; C peptide during MTT, mean [1, 20]: 5.91 ng/mL; C peptide during MTT, mean [1, 21]: 5.24 ng/mL; C peptide during MTT, mean [1, 22]: 5.41 ng/mL; Change from baseline to week 12 in HOMA-IR, mean ([2]; 3.0 mg cohort, n=7): -2.1; Change from baseline to week 12 in HOMA-IR, mean ([2]; 4.5 mg cohort, n=5): -1.5; Change from baseline to week 12 in HOMA-IR, mean ([2]; 6.0 mg cohort, n=8): -5.4; Change from baseline to week 12 in HOMA-IR, individual ([2]; 3.0 mg cohort, n=7): -4.8 and -1.3 and -2.3 and -1.2 and -2.4; Change from baseline to week 12 in HOMA-IR, individual ([2]; 4.5 mg cohort, n=5): -2.8 and -5.0 and -1.9 and 2.5 and -0.5; Change from baseline to week 12 in HOMA-IR, individual ([2]; 6.0 mg cohort, n=8): -1.9 and -5.3 and -0.4 and -4.2 and -1.1 and -1.0 and -22.2 and -7.0; Change from baseline to week 12 in blood pressure, diastolic ([3]; IBI362 3.0 mg): -1.4 mm Hg; Change from baseline to week 12 in blood pressure, systolic ([3]; IBI362 3.0 mg): -8.1 mm Hg; Change from baseline to week 12 in blood pressure, diastolic ([3]; IBI362 4.5 mg): -5.2 mm Hg; Change from baseline to week 12 in blood pressure, systolic ([3]; IBI362 4.5 mg): -6.7 mm Hg; Change from baseline to week 12 in blood pressure, diastolic ([3]; IBI362 6.0 mg): 2.3 mm Hg; Change from baseline to week 12 in blood pressure, systolic ([3]; IBI362 6.0 mg): -3.3 mm Hg; Percent change from baseline to week 12 in post-MTT glucose AUC0-4 h, LS mean ([4]; 3.0 mg cohort, n=8): −37.0% and -36.99%; Percent change from baseline to week 12 in post-MTT glucose AUC0-4 h, LS mean ([4]; 4.5 mg cohort, n=8): −38.9% and -38.89%; Percent change from baseline to week 12 in post-MTT glucose AUC0-4 h, LS mean ([4]; 6.0 mg cohort, n=8): −43.9% and -43.88%; Glucose during MTT, mean [4, 5]: 7.91 mmol/L; Glucose during MTT, mean [4, 6]: 7.75 mmol/L; Glucose during MTT, mean [4, 7]: 7.11 mmol/L; Glucose during MTT, mean [4, 8]: 10.06 mmol/L; Glucose during MTT, mean [4, 9]: 9.84 mmol/L; Glucose during MTT, mean [4, 10]: 9.53 mmol/L; Glucose during MTT, mean [4, 11]: 13.39 mmol/L; Glucose during MTT, mean [4, 12]: 11.82 mmol/L; Glucose during MTT, mean [4, 13]: 11.83 mmol/L; Glucose during MTT, mean [4, 14]: 11.24 mmol/L; Glucose during MTT, mean [4, 15]: 10.28 mmol/L; Glucose during MTT, mean [4, 16]: 9.52 mmol/L; Glucose during MTT, mean [4, 17]: 8.73 mmol/L; Glucose during MTT, mean [4, 18]: 8.34 mmol/L; Glucose during MTT, mean [4, 19]: 7.51 mmol/L; Glucose during MTT, mean [4, 20]: 7.23 mmol/L; Glucose during MTT, mean [4, 21]: 7.08 mmol/L; Glucose during MTT, mean [4, 22]: 6.63 mmol/L

**Q.** What does the source list for “Dulaglutide: open-label active reference, subcutaneously once weekly at a fixed dose of 1.5 mg [reference compound]”?
**A.** C peptide during MTT, mean [1, 23]: 3.04 ng/mL; C peptide during MTT, mean [1, 24]: 4.18 ng/mL; C peptide during MTT, mean [1, 25]: 6.16 ng/mL; C peptide during MTT, mean [1, 26]: 8.34 ng/mL; C peptide during MTT, mean [1, 27]: 5.85 ng/mL; C peptide during MTT, mean [1, 28]: 4.53 ng/mL; Change from baseline to week 12 in HOMA-IR, mean ([2]; 1.5 mg once weekly, n=6): -1.5; Change from baseline to week 12 in HOMA-IR, individual ([2]; 1.5 mg once weekly, n=6): 0.346 and 1.1 and -0.8 and -3.0 and -3.5; Change from baseline to week 12 in blood pressure, diastolic ([3]; Dulaglutide group): 4.0 mm Hg; Change from baseline to week 12 in blood pressure, systolic ([3]; Dulaglutide group): 5.8 mm Hg; Percent change from baseline to week 12 in post-MTT glucose AUC0-4 h, LS mean ([4]; 1.5 mg once weekly, n=6): -41.70%; Glucose during MTT, mean [4, 23]: 7.18 mmol/L; Glucose during MTT, mean [4, 24]: 9.32 mmol/L; Glucose during MTT, mean [4, 25]: 11.86 mmol/L; Glucose during MTT, mean [4, 26]: 9.62 mmol/L; Glucose during MTT, mean [4, 27]: 7.11 mmol/L; Glucose during MTT, mean [4, 28]: 6.79 mmol/L
